Experimental findings from patent publication US20240385182A1, “MASKED FLUOROGENIC LIPID COMPOUNDS, LIPID PARTICLES COMPRISING THE SAME, AND METHODS OF USE THEREOF” (Rutgers, The State University of New Jersey, priority 2023, published 2024) are described below.

Data set [1] is described as follows: Photophysical characterization of probes and uncaged forms (relative fluorescence quantum yield, extinction coefficient, brightness). It counts as physicochemical. Particulars: for Relative Brightness: Table 3; for Brightness: in M⁻¹·cm⁻¹ (unit assumed). The method, then:
The pKa of TEG-TC was determined to be 7.1±0.1 using UV-Vis spectrophotometric measurements. Under the confocal imaging conditions (pH 7.5-8.5 with cell-free assays, pH 7.4 with cells), a substantial population of the 7-hydroxycoumarin should exist in its aryloxide form. The change in coumarin fluorogenicity was assessed upon uncaging the probes from the oxobutylphenyl carbonate by measuring the relative fluorescence quantum yield (ΦFrel) values (Table 2). Coumarin 343 was used as a standard, which has an absolute fluorescence quantum yield ([…]) of 0.63 in ethanol. The ΦFrel values of TEG-TC-ONOO^− (entry 1) and DPPC-TC-ONOO^− (entry 3) were measured as 0.08 and 0.09, respectively. […] The ΦFrel values for TEG-TC (entry 2) and DPPC-TC (entry 4), which were synthesized independently, were measured as 0.66 and 0.64, respectively.
Next, the impact of caging and uncaging of the coumarin or fluorescein moieties on their fluorogenicity was assessed by measuring the relative fluorescence quantum yield (ΦFrel) values (Table 3). Coumarin 343 was used as the standard for measuring ΦFrel of the triazole-coumarin compounds (TEG-TC-H2S, TEG-TC, DPPC-TC-H2S, and DPPC-TC) whereas fluorescein for the triazole-fluorescein compounds (TEG-TF-H2O2, TEG-TF, and DPPC-TF-H2O2, and DPPC-TF). Relative to coumarin 343, whose absolute fluorescence quantum yield (ΦF) is 0.63 in ethanol, ΦFrels of the H2S probes TEG-TC-H2S (entry 1) and DPPC-TC-H2S (entry 3) were determined to be 0.07 and 0.03, respectively.
The pKa of TEG-TC was previously found to be to be 7.1±0.1 using UV-Vis spectrophotometric measurements. Under the fluorescence activation assay conditions that are employed here (Tris 50 mM, pH 7.5), a substantial population of the coumarin moiety is expected to be in its aryloxide anion form. Relative to fluorescein, whose ΦF is 0.79 in ethanol, ΦFrel values of the H2O2 probes TEG-TF-H2O2 (entry 5) and DPPC-TF-H2O2 (entry 7) were determined to be 0.04 and 0.02, respectively.

The nature of data set [2]: Confocal imaging of H2S-sensing giant vesicles. The note with it: GVs with POPC, POPG, cholesterol; H2S (500 μM) over 1 hour. The source says:
FIGS. 14A-14B: giant vesicles (GVs) that can sense reductive (FIG. 14A) or oxidative (FIG. 14B) environments. Confocal images acquired for H2S-sensing GV at 405/475 nm (ex/em) (FIG. 14A) and H2O2 sensing GV at 490/520 nm (ex/em) (FIG. 14B). Lipid compositions of GVs: POPC, POPG, cholesterol, and DPPC-TC-H2S (48:21:30:1 molar ratio; FIG. 14A); and POPC, POPG, cholesterol, and DPPC-TF-H2O2 (48.5:21:30:0.5; FIG. 14B). To label vesicle membranes, Liss-Rhod PE dye (563/580 nm) was introduced to the lipid mixture at an insignificant molar ratio (0.1 mol %). Concentrations of RSS and ROS were set to 500 and 100 μM, respectively. Scale bar=5 μm.
The redox sensing abilities of giant vesicles (GVs) comprising DPPC-TC-H2S or DPPC-TF-H2O2 were investigated. In most biomimetic systems that rely on compartmentalization, physical membrane boundaries are comprised of phospholipids and cholesterol. These lipid self-assemblies have dimensional properties (1-30 μm in diameter) relevant to those of a mammalian plasma membrane (10-100 μm), display physical characteristics feasible for confocal fluorescence imaging, and are conveniently utilized for bottom-up construction of biomimetic protocells. […]
The vesicle size distribution was analyzed by dynamic light scattering (DLS), confirming the presence of GVs. […]

Data set [3] is described as follows: Fluorescence activation and LoD of TEG-TF-H2O2 with H2O2 in Tris buffer. How it is done: FIGS. 13A-13D: specificity (FIGS. 13A-13B) and limit of detection (LoD) (FIGS. 13C-13D) of TEG-TC-H2S and TEG-TF-H2O2. LoD measurements for the probes TEG-TC-H2S (390/475 nm) and TEG-TF-H2O2 (485/525 nm) were performed in Tris buffer (50 mM, pH 7.5). Error bars represent the standard deviation; n=3. Single-tailed Student's t test: *, P<0.05; **, P<0.01; ***, P<0.001; ****, P<0.0001.
(§1) The redox-specificities of the non-amphiphilic probes, TEG-TC-H2S or TEG-TF-H2O2, were assessed by subjecting them to various RSS or ROS (FIGS. 13A-13B). Change in fluorescence intensity following excitation of each sample containing the respective probe was measured over 120 minutes of incubation and presented based on the signal-to-background ratio F/F0, where F and F0 are defined as the fluorescence with and without the redox species. The F/F0 of the untreated samples were set to 1 for comparisons. […] Samples containing TEG-TF-H2O2 and treated with 100 μM H2O2 presented a steady fluorescence enhancement within 2 hours, resulting in 4.4-fold higher fluorescence than those of the untreated samples (FIG. 13B).
(§2) The specificity of TEG-TC-H2S toward H2S was evaluated by comparing its reactivity against different RSS, cysteine (Cys), glutathione (GSH), sulfite (SO3^2−), and thiosulfate (S2O3^2−). At 1 mM initial concentration and a total incubation time of 2 hours, these sulfur species induced an increase in coumarin fluorescence by less than 25% compared to the untreated sample (FIG. 13A). […] The specificity of TEG-TF-H2O2 toward H2O2 was also assessed, by incubating the samples containing TEG-TF-H2O2 with 100 μM either hydroxyl radical (·OH), nitric oxide (NO), or superoxide radical (O2·^−) for 2 hours. Among these three reactive oxygen species, ·OH induced the highest fluorescence increase (2.2-fold), which was lower than that for H2O2 (4.4-fold). The relatively low yet observable reactivity of ·OH may have been due, in large part, to the residual unreacted H2O2 used for generating ·OH. […]

A short description of data set [4]: Specificity of TEG-TF-H2O2 against other ROS. Particulars: ·OH 100 μM, 2 hours. How it is done: as §1
as §2, with “hours.” for “hours. Among these three reactive oxygen species, ·OH induced the highest fluorescence increase (2.2-fold), which was lower than that for H2O2 (4.4-fold). The relatively low yet observable reactivity of ·OH may have been due, in large part, to the residual unreacted H2O2 used for generating ·OH.”

Structures are written as SMILES.

Take `CCCCCCCCCCCCCCCC(=O)OCC(COP(=O)([O-])OCC[N+](C)(C)Cc1cn(-c2cc3ccc(OCc4ccc(N=[N+]=[N-])cc4)cc3oc2=O)nn1)OC(=O)CCCCCCCCCCCCCCC` (racemic) [DPPC-TC-H2S]: in data set [1], the Emmax is given as 473.5 nm, the Exmax is listed as 396.5 nm, the “Ext. Coeff.” value was determined as 24111 M⁻¹ cm⁻¹ and the Brightness stood at 72. Further, the “Relative Brightness” value in data set [1] (brightness compared to that of DPPC-TC-H2S) is reported as 1.0. Besides, the “Quantum Yield (relative fluorescence quantum yield ΦFrel)” value in data set [1] (standard coumarin 343) is 0.03. Moreover, the GV fluorescence result in data set [2] was “significant increase in fluorescence”.

With `CC1(C)OB(c2ccc(COC(=O)Oc3ccc4c(c3)Oc3cc(OC(=O)OCc5ccc(B6OC(C)(C)C(C)(C)O6)cc5)ccc3C43OC(=O)c4cc(-n5cc(COCCOCCOCCO)nn5)ccc43)cc2)OC1(C)C` [TEG-TF-H2O2], in data set [1], the Emmax is 526.0 nm, the Exmax is listed as 492.0 nm, the “Ext. Coeff.” value came out at 13429 M⁻¹ cm⁻¹ and the Brightness was determined as 537. For the same compound, in data set [1] (brightness compared to that of DPPC-TF-H2O2), the “Relative Brightness” value was found to be 2.5. Also, the “Quantum Yield (relative fluorescence quantum yield ΦFrel)” value in data set [1] (standard fluorescein) stood at 0.04. The “fluorescence compared to untreated samples” value in data set [3] (100 μM H2O2, 2 hours, Tris pH 7.5) stood at 4.4 fold. Besides, the LoD in data set [3] (minimum H2O2 concentration at which F is statistically higher than F0, 485/525 nm, Tris 50 mM pH 7.5) was 10 µM. In data set [3] (no redox species, pH 7.5, 120 minutes), the “fluorescence increase of the untreated sample compared to the fluorescence at 1 min (possible hydrolysis)” value was 277%. In data set [4], this compound displayed a fluorescence increase of 2.2 fold.
